No end group written: not given here.
Key:
[1] = tested on: E. faecium strain C68 established biofilms; assay: Confocal microscopy of peptide-treated established biofilms (LIVE/DEAD); type: cell-based, Enterococcus faecium; settings: 10× MIC, 24 h established biofilms, 24 h treatment
Method: We prepared exponential cultures of E. faecium strain C68 (adjusted to 1 × 10^6 CFU/mL) in BHI media (supplemented with 0.2% glucose) from overnight grown cultures. To establish biofilms, we added 1 mL of the bacterial culture to the chambers of cuvettes (borosilicate cover glass, Nunc Cat. No. 155380) and maintained them at 37 °C for 24 h under static conditions. We carefully removed the media from the wells after incubation and then washed the wells with PBS (Gibco, MD, USA) to remove loosely attached planktonic cells. We treated the established biofilms in each well with 100 µL of serially diluted 10× MIC peptide solution (5L and 6L) followed by the addition of 900 μL of BHI media (supplemented with 0.2% glucose) and incubated the cuvettes for an additional 24 h at 37 °C. After incubation, we washed the cuvettes carefully with PBS (Gibco, MD, USA) to remove the planktonic cells and stained the biofilms with 10 µL of LIVE/DEAD kit (Molecular Probes, Life Technologies, Eugene, OR, USA) according to the manufacturer’s instructions. Finally, we visualized the biofilms using a confocal microscope (Zeiss 880) and processed the data via Zen 2010 software (Carl Zeiss, Jena, Germany).

[2] = HPLC retention time on C18 reverse-phase column; type: physicochemical
From the text: Table 1 Physical parameters and the minimal inhibitory concentration (µg/mL) of designed peptides against E. faecium. | column: rT ^f (min)

E. faecium WC176 = assay: organism not typed; type: cell-based, Enterococcus faecium; settings: WC176, 18 h
Method: (§1) To determine the MICs of peptides, we used the broth microdilution method described by the Clinical and Laboratory Standards Institute. We made serial dilutions of 10× concentration (10 µL) for each peptide in duplicates in 96-well plates (Cat No. 3595, Corning, New York, NY, USA). We added 90 µL of logarithmic-phase bacteria at 5 × 10^5 CFU/mL (in BHI media) to the peptides and then incubated the plates at 37 °C for 18 h. We measured the OD600 absorbance readings using the Spectra Max i3x spectrophotometer (Molecular Devices, San Jose, CA, USA) and determined the MIC as the peptide concentration that inhibits the growth of bacteria.

[3] = tested on: drug-resistant E. faecium clinical isolates; type: cell-based, Enterococcus faecium; settings: strains D14, D24, D25, D29, C68 and WC176
Method: as §1

[4] = tested on: human red blood cells (hRBCs); type: cell-based
Method: We evaluated the ability of the peptide to cause hemoglobin leakage using the method described in [15]. In brief, we washed human erythrocytes (Rockland Immunochemicals (Limerick, Pottstown, PA, USA)) 3× times in an equal volume of PBS and resuspended them as 2% hRBCs solution. We added 90 µL of the blood cells to 10 µL of the peptide solution (10×) in a 96-well microtiter plate (Cat No. 3595, Corning, New York, NY, USA) and incubated the plates at 37 °C for 1 h. Next, we centrifuged the plates at 500× g for 5 min, transferred 60 µL of the supernatant into a fresh 96-well plate, and read the absorbance at 540 nm. We calculated the percent hemolysis considering 100% hemolysis caused by 1% Triton X-100, and 0% on PBS and using the formula for percentage of hemolysis as: (A540 nm in the peptide solution − A540 nm in PBS)/(A540 nm of 1% Triton X-100-treated sample − A540 nm in PBS) × 100.

[5] = tested on: E. faecium strain C68 persister and exponential cells; assay: SYTOX Green membrane permeability assay; type: cell-based, Enterococcus faecium; settings: for SYTOX membrane permeabilization of exponential cells: 16 µg/mL; for SYTOX membrane permeabilization of persister cells: peptides at 16 µg/mL, fluorescence, 1 h
Method: We generated E. faecium strain C68 persister cells (described in the above section) and diluted them in PBS to OD600 = 0.2. We added SYTOX Green (Molecular Probes, Life Technologies, Eugene, OR, USA) to the diluted persister suspension to a final concentration of 5 μM and incubated them for 30 min at room temperature in the dark. We added 90 µL of the dye/bacteria mixture to 10 μL of serially diluted 10× peptide concentration in a 96-well black, clear-bottom plate (Cat No. 3904, Corning, NY, USA) and recorded fluorescence on a SpectraMax i3x (Molecular Devices, San Jose, CA, USA) with excitation and emission wavelengths of 485 nm and 525 nm, respectively, for 1 h at room temperature. For comparison, we also conducted membrane permeability assays using exponential cells and followed similar protocol as described for persister cells.

[6] = tested on: biofilm genes ace, esp, ebpA, ebpC of E. faecium strain C68; assay: qPCR of genes associated with biofilm formation; type: cell-based, Enterococcus faecium; settings: 0.5× MIC, 30 min, real-time PCR
Method: For the qPCR of genes associated with biofilm formation, we followed an established protocol for RNA isolation and quantitative PCR reactions with minor modifications. We prepared exponential cultures of E. faecium strain C68 adjusted to an OD600 = 0.4 in BHI media from overnight grown cultures. After treating 10 mL of bacterial culture with 0.5× MICs of 5L and 6L for 30 min, we extracted RNA using the RNeasy mini kit (Qiagen, Hilden, Germany) according to the manufacturer’s instructions. Using the primers listed in Supplementary Table S2, we performed cDNA synthesis and quantitative reverse transcription (RT)-PCR as recommended by the manufacturer (Bio-Rad, Hercules, CA, USA). Our qPCR cycling conditions were: 95 °C for 30 s; 40 cycles at 95 °C for 5 s; 55 °C for 30 s; and finished with a melt curve analysis from 65 to 95 °C.

E. faecalis OG1RF = assay: MIC assay, E. faecalis OG1RF; type: cell-based; settings: rifampin and fusidic acid resistant
Method: as §1

E. faecium D14 = assay: microbe, parasite or virus in culture; type: cell-based, Enterococcus faecium; settings: ampicillin resistant, vancomycin-sensitive isolate
Method: as §1

E. faecium D25 = assay: microbe, parasite or virus in culture; type: cell-based, Enterococcus faecium; settings: ampicillin resistant, vancomycin-sensitive isolate
Method: as §1

E. faecium D24 = assay: microbe, parasite or virus in culture; type: cell-based, Enterococcus faecium; settings: ampicillin resistant, vancomycin-sensitive isolate
Method: as §1

E. faecium D29 = assay: microbe, parasite or virus in culture; type: cell-based, Enterococcus faecium; settings: ampicillin resistant, vancomycin-sensitive isolate
Method: as §1

E. faecium strain C68 = assay: microbe, parasite or virus in culture; type: cell-based, Enterococcus faecium; settings: strain C68, 18 h
Method: as §1

E. faecium E007 = assay: microbe, parasite or virus in culture; type: cell-based, Enterococcus faecium; settings: tetracycline-resistant strain
Method: as §1

Row | Substance | killing of bacteria inside biofilms (confocal, LIVE/DEAD) [1] | rT (HPLC retention time) [2] [min] | MIC WC176 (E. faecium WC176) [µg/mL] | MIC range against clinical isolates of E. faecium [3] [µg/mL] | HL50 [4] [µg/mL] | SYTOX membrane permeabilization of exponential cells [5] | SYTOX membrane permeabilization of persister cells [5] | downregulation of ace expression [6] [folds] | downregulation of ebpA expression [6] [fold] | downregulation of ebpC expression [6] [fold] | downregulation of esp expression [6] [fold] | MIC E. faecalis OG1RF (E. faecalis OG1RF) [µg/mL] | MIC D14 (E. faecium D14) [µg/mL] | MIC D25 (E. faecium D25) [µg/mL] | MIC D24 (E. faecium D24) [µg/mL] | MIC D29 (E. faecium D29) [µg/mL] | MIC EF C68 (E. faecium strain C68) [µg/mL] | MIC Media Only (E. faecium strain C68) [µg/mL] | MIC E007 (E. faecium E007) [µg/mL]
1 | RRWLWLRRWLWR-NH2 [Peptide 5L] | killed most of the bacteria inside the biofilms | 17.522 | 8 | 4 to 16 | 56 | enhanced membrane permeabilization | time-dependent fluorescent increment | 8 | 2 | 2 | 4 | > 32 | 16 | 4 | 8 | 16 | 4 | 4 | 4
2 | RRWLWRLRWLWR-NH2 [Peptide 6L] | killed most of the bacteria inside the biofilms | 18.603 | 8 | 4 to 16 | 34 | enhanced membrane permeabilization | time-dependent fluorescent increment | 4 | – | 2 | – | > 32 | 8 | 4 | 8 | 8 | 4 | 4 | 4
